Read-outs that look alike come from different tables or passages of the source. Square brackets hold non-standard residues; d marks the D form. Peptide text beside a SMILES is read from it. dPhe(4-Cl) = N[C@H](Cc1ccc(Cl)cc1)C(=O)O; d2Nal = N[C@H](Cc1ccc2ccccc2c1)C(=O)O; Lys(iPr) = CC(C)NCCCC[C@H](N)C(=O)O; NMeY = CN[C@@H](Cc1ccc(O)cc1)C(=O)O; d3Pal = N[C@H](Cc1cccnc1)C(=O)O
Legend:
testosterone [1] = experiment: Study I: plasma testosterone (radioimmunoassay) on ECG study days; format: in vivo, human
Procedure: Abarelix was given as a dose of 100 mg IM on days 1, 15, 29 and every 28 days thereafter for 48 weeks. […] Plasma testosterone samples were obtained at the same time. All ECG's were analyzed in a blinded fashion to treatment allocation. Each ECG was analyzed in comparison to its respective baseline for heart rate, QRS duration, PR interval, QT interval, and QTc. Concomitant medicines and prior medical history was recorded on all patients. […] If a patient experienced a QTcB of ≧500 msec while on study, therapy was to be discontinued. Laboratory analysis of testosterone and dihydrotestosterone were determined using certified central laboratories and standard radioimmunoessay methods.

testosterone [2] = experiment: Studies II and III: plasma testosterone (radioimmunoassay) on ECG study days; format: in vivo, human
Procedure: QTcB and QTcF were calculated utilizing standard formulas.^(F)
Laboratory analysis of testosterone and dihydrotestosterone were determined using certified central laboratories and standard radioimmunoessay methods.

QT interval [3] = settings: human, in vivo
Procedure: Abarelix was given as a dose of 100 mg IM on days 1, 15, 29 and every 28 days thereafter for 48 weeks. Prospectively, a standard 12-lead ECG was performed at baseline and on days 85 and 337. Plasma testosterone samples were obtained at the same time. All ECG's were analyzed in a blinded fashion to treatment allocation. Each ECG was analyzed in comparison to its respective baseline for heart rate, QRS duration, PR interval, QT interval, and QTc. Concomitant medicines and prior medical history was recorded on all patients. Patients with a baseline QT of >450 msec were to be excluded from the study. If a patient experienced a QTcB of ≧500 msec while on study, therapy was to be discontinued. […] They are the focus of this report.

QT interval [4] = settings: human, in vivo; remark: listed apart in the source
Procedure: Studies II and III required an ECG at baseline and on day 169 and, if the patient continued, on day 365. […] The ECG machine-calculated heart rate and QT interval were entered into a database. QTcB and QTcF were calculated utilizing standard formulas.^(F)
QTc evaluations included measurement of baseline, post baseline, on-therapy and change from baseline in QTcB and QTcF in each treatment group.
ECG measurement of QTcB and QTcF were calculated based on standard QT and heart rate measurements. T-tests were used to evaluate intra as well as inter-treatment change from baseline for each treatment group. Comparisons between treatment groups were performed in a pair wise manner.

| SMILES | Testosterone Levels, Median (testosterone [1]; Baseline) | Testosterone Levels, Median (testosterone [1]; Day 85) | Testosterone Levels, Median (testosterone [1]; Day 337) | Testosterone Levels, Median (testosterone [2]; Baseline) | Testosterone Levels, Median (testosterone [2]; Day 169) | QTcB Baseline (QT interval [3]) | QTcB On Therapy (QT interval [3]) | QTcF Baseline (QT interval [3]) | QTcF Change from Baseline (QT interval [3]) | QTcF On Therapy (QT interval [3]) | QTcB Baseline (QT interval [4]) | QTcB On Therapy (QT interval [4]) | QTcF Baseline (QT interval [4]) | QTcF On Therapy (QT interval [4]) |
| --- | --- | --- | --- | --- | --- | --- | --- | --- | --- | --- | --- | --- | --- | --- |
| CC(=O)N[C@H](Cc1ccc2ccccc2c1)C(=O)N[C@H](Cc1ccc(Cl)cc1)C(=O)N[C@H](Cc1cccnc1)C(=O)N[C@@H](CO)C(=O)N(C)[C@@H](Cc1ccc(O)cc1)C(=O)N[C@H](CC(N)=O)C(=O)N[C@@H](CC(C)C)C(=O)N[C@@H](CCCCNC(C)C)C(=O)N1CCC[C@H]1C(=O)N[C@H](C)C(N)=O [Abarelix, abarelix] (Ac-[d2Nal][dPhe(4-Cl)][d3Pal]S[NMeY][dN]L[Lys(iPr)]P[dA]-NH2) | 316 ng/dL | 23 ng/dL | 35 ng/dL | 361 ng/dL | 14 ng/dL | 413.5 (26.8) msec | 426.8 (22.9) msec | 404.6 (23.5) msec | 12.0 (16.2) msec | 419.5 (21.3) msec | 417.9 (28.6) msec | 431.7 (29.8) msec | 410.6 (28.1) msec | 423.4 (28.0) msec |
| CCNC(=O)[C@@H]1CCCN1C(=O)[C@H](CCCNC(=N)N)NC(=O)[C@H](CC(C)C)NC(=O)[C@@H](CC(C)C)NC(=O)[C@H](Cc1ccc(O)cc1)NC(=O)[C@H](CO)NC(=O)[C@H](Cc1c[nH]c2ccccc12)NC(=O)[C@H](Cc1c[nH]cn1)NC(=O)[C@@H]1CCC(=O)N1 [Leuprolide, leuprolide] |  |  |  | 342 ng/dL | 9 ng/dL |  |  |  |  |  | 421.6 (29.4) msec | 441.6 (25.8) msec | 414.5 (26.0) msec | 432.1 (23.6) msec |

Reference: patent US20050233970A1, “Methods for treating long QT syndrome” (priority 2004, published 2005)
